Assay: Pharmacokinetic studies in the guinea pig (1 mg/kg IV, 10 mg/kg oral)
Type: in vivo
Method: Pharmacokinetic studies in the guinea pig were run using 1 mg/kg IV dosing (20% DMA, 40% TEG, 40% water) and 10 mg/kg oral dosing (2% Tween-80, 98% HPMC (1% water)).

- bioavailability (in vivo, 10 mg/kg oral vs 1 mg/kg IV): 184%
- AUC0-inf (oral, 10 mg/kg): 14891 ng·h/mL
- AUC0-last (oral, 10 mg/kg): 8231 ng·h/mL
- AUCExtra (oral, 10 mg/kg): 43.93%
- Cmax (oral, 10 mg/kg): 1018 ng/mL
- MRT0-last (oral, 10 mg/kg): 5.56 h
- Tmax (oral, 10 mg/kg): 3 h
- t1/2 (oral, 10 mg/kg): 6.0 h
- DNAUC (0-inf) (oral, 10 mg/kg, dose-normalised AUC): 823.1
- Rsq (oral, 10 mg/kg, fit of terminal phase): 0.91
Structure (SMILES): CC(=O)N1CCN(c2ccc(CO[C@H]3CO[C@](Cn4ccnc4)(c4ccc(Cl)cc4Cl)OC3)cc2)CC1 [drawing 113]
